Columns and labels:
[1] = cited from earlier work
[2] = Safety: treatment-emergent adverse events (NCI CTCAE version 4.0); format: in vivo, human
Method: Adverse event (AE) severity was assessed according to the National Cancer Institute Common Terminology Criteria for Adverse Events (NCI CTCAE) version 4.0. Tumor evaluations were performed at screening, every 8 weeks after the first administration of study drug, and at the final visit using radiographic measurements from computed tomography or magnetic resonance imaging. Objective tumor responses were evaluated using RECIST version 1.1 criteria. Patients who received one or more doses of veliparib were included in the PK and safety analyses, as well as for evaluation of time to disease progression (TTP). Patients with one or more measurable lesion at baseline were included in the analysis of objective responses.

[3] = All cycles, All patients (N = 71)
[4] = All cycles, Part 1, extension (n = 24)
[5] = Cycle 1, Part 1, extension (n = 24)

C[C@]1(c2nc3c(C(N)=O)cccc3[nH]2)CCCN1 [veliparib]
RP2D ([1]; single agent, phase I study): 400 mg twice-daily (BID) | patients experiencing grade 3 or 4 neutropenia or thrombocytopenia ([1]; single-agent therapy, phase I and II trials): 2% | patients with dose modifications, predominantly for nausea and vomiting ([1]; single-agent therapy): 78% | Any SAE [2, 3]: 20 (28.2) n (%) | SAE leading to discontinuation [2, 3]: 8 (11.3) n (%) | SAE leading to dose interruption [2, 3]: 14 (19.7) n (%) | SAE leading to dose reduction [2, 3]: 1 (1.4) n (%) | TEAE: Any AE [2, 3]: 70 (98.6) n (%) | TEAE: At least possibly related to study drug [2, 3]: 60 (84.5) n (%) | TEAE: NCI CTCAE grade 3 or 4 [2, 3]: 28 (39.4) n (%) | Any SAE [2, 4]: 5 (20.8) n (%) | SAE leading to discontinuation [2, 4]: 3 (12.5) n (%) | SAE leading to dose interruption [2, 4]: 4 (16.7) n (%) | SAE leading to dose reduction [2, 4]: 0 n (%) | TEAE: Abdominal pain [2, 4]: 3 (12.5) n (%) | TEAE: Anemia [2, 4]: 3 (12.5) n (%) | TEAE: Any AE [2, 4]: 23 (95.8) n (%) | TEAE: At least possibly related to study drug [2, 4]: 17 (70.8) n (%) | TEAE: Constipation [2, 4]: 5 (20.8) n (%) | TEAE: Decreased appetite [2, 4]: 1 (4.2) n (%) | TEAE: Diarrhea [2, 4]: 5 (20.8) n (%) | TEAE: Fatigue [2, 4]: 7 (29.2) n (%) | TEAE: NCI CTCAE grade 3 or 4 [2, 4]: 7 (29.2) n (%) | TEAE: Nausea, Grade 1 [2, 4]: 11 (45.8) n (%) | TEAE: Nausea, Grade 2 [2, 4]: 3 (12.5) n (%) | TEAE: Nausea, Grade 3 [2, 4]: 0 n (%) | TEAE: Urinary tract infection [2, 4]: 7 (29.2) n (%) | TEAE: Vomiting [2, 4]: 11 (45.8) n (%) | TEAE: Vomiting, Grade 1 [2, 4]: 11 (45.8) n (%) | TEAE: Vomiting, Grade 2 [2, 4]: 0 n (%) | TEAE: Vomiting, Grade 3 [2, 4]: 0 n (%) | Any SAE ([2]; All cycles, Part 2 (n = 35)): 11 (31.4) n (%) | SAE leading to discontinuation ([2]; All cycles, Part 2 (n = 35)): 4 (11.4) n (%) | SAE leading to dose interruption ([2]; All cycles, Part 2 (n = 35)): 6 (17.1) n (%) | SAE leading to dose reduction ([2]; All cycles, Part 2 (n = 35)): 1 (2.9) n (%) | TEAE: Abdominal pain ([2]; All cycles, Part 2 (n = 35)): 7 (20.0) n (%) | TEAE: Anemia ([2]; All cycles, Part 2 (n = 35)): 10 (28.6) n (%) | TEAE: Any AE ([2]; All cycles, Part 2 (n = 35)): 35 (100) n (%) | TEAE: At least possibly related to study drug ([2]; All cycles, Part 2 (n = 35)): 33 (94.3) n (%) | TEAE: Constipation ([2]; All cycles, Part 2 (n = 35)): 14 (40.0) n (%) | TEAE: Decreased appetite ([2]; All cycles, Part 2 (n = 35)): 11 (31.4) n (%) | TEAE: Diarrhea ([2]; All cycles, Part 2 (n = 35)): 10 (28.6) n (%) | TEAE: Fatigue ([2]; All cycles, Part 2 (n = 35)): 14 (40.0) n (%) | TEAE: NCI CTCAE grade 3 or 4 ([2]; All cycles, Part 2 (n = 35)): 17 (48.6) n (%) | TEAE: Nausea ([2]; All cycles, Part 2 (n = 35)): 31 (88.6) n (%) | TEAE: Nausea, Grade 1 ([2]; All cycles, Part 2 (n = 35)): 24 (68.6) n (%) | TEAE: Nausea, Grade 2 ([2]; All cycles, Part 2 (n = 35)): 5 (14.3) n (%) | TEAE: Nausea, Grade 3 ([2]; All cycles, Part 2 (n = 35)): 2 (5.7) n (%) | TEAE: Urinary tract infection ([2]; All cycles, Part 2 (n = 35)): 5 (14.3) n (%) | TEAE: Vomiting ([2]; All cycles, Part 2 (n = 35)): 17 (48.6) n (%) | TEAE: Vomiting, Grade 1 ([2]; All cycles, Part 2 (n = 35)): 13 (37.1) n (%) | TEAE: Vomiting, Grade 2 ([2]; All cycles, Part 2 (n = 35)): 3 (8.6) n (%) | TEAE: Vomiting, Grade 3 ([2]; All cycles, Part 2 (n = 35)): 1 (2.9) n (%) | Any SAE ([2]; All cycles, Part 3 (n = 12)): 4 (33.3) n (%) | SAE leading to discontinuation ([2]; All cycles, Part 3 (n = 12)): 1 (8.3) n (%) | SAE leading to dose interruption ([2]; All cycles, Part 3 (n = 12)): 4 (33.3) n (%) | SAE leading to dose reduction ([2]; All cycles, Part 3 (n = 12)): 0 n (%) | TEAE: Abdominal pain ([2]; All cycles, Part 3 (n = 12)): 4 (33.3) n (%) | TEAE: Anemia ([2]; All cycles, Part 3 (n = 12)): 2 (16.7) n (%) | TEAE: Any AE ([2]; All cycles, Part 3 (n = 12)): 12 (100) n (%) | TEAE: At least possibly related to study drug ([2]; All cycles, Part 3 (n = 12)): 10 (83.3) n (%) | TEAE: Constipation ([2]; All cycles, Part 3 (n = 12)): 4 (33.3) n (%) | TEAE: Decreased appetite ([2]; All cycles, Part 3 (n = 12)): 2 (16.7) n (%) | TEAE: Diarrhea ([2]; All cycles, Part 3 (n = 12)): 6 (50.0) n (%) | TEAE: Fatigue ([2]; All cycles, Part 3 (n = 12)): 2 (16.7) n (%) | TEAE: NCI CTCAE grade 3 or 4 ([2]; All cycles, Part 3 (n = 12)): 4 (33.3) n (%) | TEAE: Nausea ([2]; All cycles, Part 3 (n = 12)): 9 (75.0) n (%) | TEAE: Nausea, Grade 1 ([2]; All cycles, Part 3 (n = 12)): 6 (50.0) n (%) | TEAE: Nausea, Grade 2 ([2]; All cycles, Part 3 (n = 12)): 2 (16.7) n (%) | TEAE: Nausea, Grade 3 ([2]; All cycles, Part 3 (n = 12)): 1 (8.3) n (%) | TEAE: Urinary tract infection ([2]; All cycles, Part 3 (n = 12)): 3 (25.0) n (%) | TEAE: Vomiting ([2]; All cycles, Part 3 (n = 12)): 7 (58.3) n (%) | TEAE: Vomiting, Grade 1 ([2]; All cycles, Part 3 (n = 12)): 4 (33.3) n (%) | TEAE: Vomiting, Grade 2 ([2]; All cycles, Part 3 (n = 12)): 2 (16.7) n (%) | TEAE: Vomiting, Grade 3 ([2]; All cycles, Part 3 (n = 12)): 1 (8.3) n (%) | Any SAE ([2]; Cycle 1, All patients (N = 71)): 10 (14.1) n (%) | SAE leading to discontinuation ([2]; Cycle 1, All patients (N = 71)): 4 (5.6) n (%) | SAE leading to dose interruption ([2]; Cycle 1, All patients (N = 71)): 6 (8.5) n (%) | SAE leading to dose reduction ([2]; Cycle 1, All patients (N = 71)): 1 (1.4) n (%) | TEAE: Any AE ([2]; Cycle 1, All patients (N = 71)): 67 (94.4) n (%) | TEAE: At least possibly related to study drug ([2]; Cycle 1, All patients (N = 71)): 50 (70.4) n (%) | TEAE: NCI CTCAE grade 3 or 4 ([2]; Cycle 1, All patients (N = 71)): 13 (18.3) n (%) | Any SAE [2, 5]: 4 (16.7) n (%) | SAE leading to discontinuation [2, 5]: 3 (12.5) n (%) | SAE leading to dose interruption [2, 5]: 2 (8.3) n (%) | SAE leading to dose reduction [2, 5]: 0 n (%) | TEAE: Any AE [2, 5]: 23 (95.8) n (%) | TEAE: At least possibly related to study drug [2, 5]: 14 (58.3) n (%) | TEAE: NCI CTCAE grade 3 or 4 [2, 5]: 4 (16.7) n (%) | Any SAE ([2]; Cycle 1, Part 2 (n = 35)): 5 (14.3) n (%) | SAE leading to discontinuation ([2]; Cycle 1, Part 2 (n = 35)): 1 (2.9) n (%) | SAE leading to dose interruption ([2]; Cycle 1, Part 2 (n = 35)): 3 (8.6) n (%) | SAE leading to dose reduction ([2]; Cycle 1, Part 2 (n = 35)): 1 (2.9) n (%) | TEAE: Any AE ([2]; Cycle 1, Part 2 (n = 35)): 34 (97.1) n (%) | TEAE: At least possibly related to study drug ([2]; Cycle 1, Part 2 (n = 35)): 29 (82.9) n (%) | TEAE: NCI CTCAE grade 3 or 4 ([2]; Cycle 1, Part 2 (n = 35)): 8 (22.9) n (%) | Any SAE ([2]; Cycle 1, Part 3 (n = 12)): 1 (8.3) n (%)

From publication PMC6010916, “Safety and pharmacokinetics of veliparib extended‐release in patients with advanced solid tumors: a phase I study” (Cancer Medicine, 2018)
